{
  "source": "patent US20190048052A1",
  "about": "“ANTI-MICROBIAL PEPTIDES AND COATINGS” (Board of Regents of the University of Nebraska, priority 2016, published 2019)",
  "key": {"[1]": {"system": "E. coli ATCC 35218", "details": "Abbassi et al. (2010); cited from earlier work"}, "[2]": {"system": "S. aureus ATCC 25923", "details": "Abbassi et al. (2010); cited from earlier work"}, "[3]": {"system": "S. aureus USA300", "format": "cell-based, Staphylococcus aureus", "details": "Table 2, first S. aureus USA300 column", "method_in_brief": "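Broth microdilution: exponential-phase bacteria at 10^6 CFU incubated with serially diluted peptides ~20 hours at 37° C, read at 630 nm to give MICs. For S. aureus USA300, effects of up to 10% human serum, pH 6.8/7.4/8.0 and 150 mM NaCl also tested.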"}, "[4]": {"system": "B. megaterium", "details": "Abbassi et al. (2010); cited from earlier work"}, "[5]": {"system": "E. coli ATCC 25922 and ML-35p strains", "details": "Abbassi et al. (2010); cited from earlier work"}, "[6]": {"system": "HeLa CCL-2 cells", "experiment": "Cytotoxicity of PET-CysTetraF2W-RR (MTS)", "format": "cell-based, human", "method": "HeLa CCL-2 cells from American Type Culture Collection (ATCC) were maintained in DMEM high glucose media with 4 mM L-glutamine (NyClone) and 100 U/mL penicillin, 100 μg/mL streptomycin (pen/strep; p/s) (Life Technologies), and 10% (v/v) inactivated fetal bovine serum (FBS, NyClone), DMEM with 10% FBS, p/s. Cells were grown in 5% CO2 at 37° C. and were detached from culturing dish at 100% confluency using 0.025% trypsin-EDTA (NyClone) treatment, seeded (18,000 cells/well) in 24-well plates (Corning Life Science) and grown overnight in 200 μL DMEM media until 70% confluency. Then the old media were replaced with 500 μL of fresh DMEM media and continued to cultivate for 1 hour with the surfaces with or without peptides (1.0×1.0 cm). 200 μL of the liquid content of each well was taken out and mixed with 20 μL of MTS. The plate was further incubated for another 2 hours at 37° C. To quantify the cytotoxicity, 100 μL of the solution was placed in a 96-well plate and the absorbance was measured on a ChroMate® reader (Awareness Technology) at 492 nm. For comparison, the same amounts of soluble peptides was used to treat them in the same way as described above. Water and 0.2% SDS were used as negative and positive controls, respectively."}, "[7]": {"system": "S. aureus USA300", "format": "cell-based, Staphylococcus aureus", "method": "(§1) The antimicrobial activity of peptides was evaluated using a standard broth microdilution protocol. In brief, exponential phase bacteria at 10^6 CFU were incubated with serially diluted peptides overnight for ˜20 hours at 37° C. The plates were read on a ChroMate® 4300 Microplate Reader at 630 nm (GMI, Ramsey, Minn.)."}, "[8]": {"system": "E. coli ATCC 25922", "format": "cell-based, Escherichia coli", "details": "ATCC 25922, 20 h", "method": "as §1"}, "[9]": {"system": "S. aureus USA300", "format": "cell-based, Staphylococcus aureus", "details": "12.5 μM", "method": "Two types of experiments were conducted to evaluate the anti-biofilm activity of these peptides against S. aureus USA300 grown under a static condition for 24 hours to form established biofilms in presence of tryptic soy broth (TSB). The experiment was set up using a flat bottom, 96-well, polystyrene microtiter plates (Corning, COSTAR). In short, S. aureus USA300 (10^5 CFU/mL) in fresh TSB media was made from an exponentially growing culture. 200 μL of this bacterial culture was added to each well of the microtiter plates. The plates are then incubated at 37° C. for 24 hours to allow biofilm formation. Media was then carefully removed followed by washing with sterile 1×PBS to remove any unattached bacteria. Solution containing μL of 10× peptide solution and 180 μL of fresh TSB were added. The plates were again incubated at 37° C. for another 24 hours. To measure the extent of biofilm disruption by the peptides as a function of biofilm reduction, crystal violet staining was performed. Media was pipetted out and the wells were carefully washed with 200 μL of PBS to remove the loosely attached cells. Subsequently, 200 μL of 99% methanol was added for fixation and the plates were allowed to sit for 15 minutes. The plates were finally aspirated and dried. Lastly, staining was done with 200 μL of 1% crystal violet in water for 5 minutes. Excess stain was gently rinsed off with tap water, and plates were air-dried. Further, stains were solubilized in 200 μL of 33% glacial acetic acid followed by colorimetric measurement at 600 nm on a Chromate® microtiter plate reader. The amounts of biofilm growth with and without compound treatments were calculated.\nIn addition, live cell contents of the peptide acted biofilms was estimated by XTT [2,3-bis(2-methyloxy-4-nitro-5-sulfophenyl)-2H-tertazolium-5-carboxanilide]assay by following the manufacturer's instructions with modifications. A 10% XTT solution in TSB media was added to each well and the plates were again incubated for 2 hours at 37° C. Absorbance at 450 nm (only media with XTT containing wells served as the blank) was obtained using Chromate® microtiter plate reader. Percentage of biofilm reduction for the peptide was plotted assuming 100% biofilm growth is achieved on the bacterial wells without peptide treatment."}, "[10]": {"system": "S. aureus USA300", "experiment": "Growth inhibition in TSB media (FIG. 15A)", "format": "cell-based, Staphylococcus aureus", "details": "3.1 μM (printed 3.1 LM), 37° C.", "method": "FIGS. 15A and 15B show the growth inhibition (FIG. 15A) and propidium iodide-based membrane permeation (FIG. 15B) of S. aureus USA300 in TSB media by 3.1 μM of TetraF2W-RR and its single arginine variants (Table 8) at 37° C. with shaking at 100 rpm.\nFluorescence spectroscopy was also used to follow bacterial killing. In brief, μL of serially diluted 10× peptide concentrations were done in 96-well coming COSTAR microtiter plates. Propidium iodide at a fixed concentration of 20 μM per well was added to each well which was finally incubated with 88 μL of S. aureus USA300 (with a final OD600 0.1) with continuous shaking at 100 rpm with meander corner well shaking, 37° C. in a FLUOstar® Omega (BMG LABTECH Inc., NC) microplate reader. The plates were read every 5 minutes for a total duration of 2 hours with excitation and emission wavelengths at 584 nm and 620 nm, respectively."}, "[11]": {"system": "human red blood cells", "experiment": "Hemolytic ability (Example 3)", "format": "cell-based", "details": "concentration that causes 50% hemolysis", "method": "Hemolytic analysis of selected peptides was performed using an established protocol. Briefly, human blood cells (UNMC Blood Bank) were washed three times with phosphate buffer saline (PBS) and diluted to a 2% solution. After peptide treatment, incubation at 37° C. for one hour, and centrifugation at 13,000 rpm, aliquots of the supernatant were transferred to a fresh 96-well microplate. To assess peptide cytotoxicity, the amount of hemoglobin released was measured at 545 nm. The percent lysis was calculated by assuming 100% release when human blood cells were treated with 1% TRITON™ X-100, and 0% release when incubated with PBS buffer."}},
  "note": "Residues, ends and D or L forms follow the SMILES beside them.",
  "data": [
    {"compound": "CC[C@H](C)[C@H](NC(=O)[C@H](CCCNC(=N)N)NC(=O)[C@H](CO)NC(=O)[C@H](CC(C)C)NC(=O)[C@H](Cc1ccccc1)NC(=O)[C@H](Cc1ccccc1)NC(=O)[C@@H](N)Cc1ccccc1)C(=O)N[C@@H](Cc1ccccc1)C(N)=O", "note": "[Temporin-SHf, FFFLSRIF] (H-FFFLSRIF-NH2; N-terminus and C-terminus assumed)", "values": [
      {"measurement": "MIC E. coli ATCC 35218", "setting": "[1]", "result": "> 200", "unit": "µM"},
      {"measurement": "MIC S. aureus ATCC 25923", "setting": "[2]", "result": 12.5, "unit": "µM"},
      {"measurement": "MIC S. aureus USA300", "setting": "[3]", "result": 25, "unit": "µM"},
      {"measurement": "MIC B. megaterium", "setting": "[4]", "result": 3, "unit": "µM"},
      {"measurement": "MIC E. coli ATCC 25922 and ML-35p strains", "setting": "[5]", "result": "25 to 30", "unit": "µM"}
    ]},
    {"compound": "CC[C@H](C)[C@H](NC(=O)[C@H](CCCNC(=N)N)NC(=O)[C@H](CCCNC(=N)N)NC(=O)[C@H](CC(C)C)NC(=O)[C@H](Cc1c[nH]c2ccccc12)NC(=O)[C@H](Cc1c[nH]c2ccccc12)NC(=O)[C@H](Cc1c[nH]c2ccccc12)NC(=O)[C@@H](N)CS)C(=O)N[C@@H](Cc1c[nH]c2ccccc12)C(N)=O", "note": "[CysTetraF2W-RR] (H-CWWWLRRIW-NH2; N-terminus and C-terminus assumed)", "values": [
      {"measurement": "toxicity to HeLa CCL-2 cells", "setting": "[6]", "result": "nontoxic"}
    ]},
    {"compound": "CC[C@H](C)[C@H](NC(=O)[C@H](CCCNC(=N)N)NC(=O)[C@H](CCCNC(=N)N)NC(=O)[C@H](CCCNC(=N)N)NC(=O)[C@H](Cc1c[nH]c2ccccc12)NC(=O)[C@H](Cc1c[nH]c2ccccc12)NC(=O)[C@@H](N)Cc1c[nH]c2ccccc12)C(=O)N[C@@H](Cc1c[nH]c2ccccc12)C(N)=O", "note": "[Peptide L4R, WWWRRRIW] (H-WWWRRRIW-NH2; N-terminus assumed)", "values": [
      {"measurement": "loss in activity compared to the WT", "setting": "[7]; MRSA USA300", "result": "four-fold"},
      {"measurement": "S. aureus (MIC)", "setting": "[7]; S. aureus USA300", "result": 12.5, "unit": "µM"},
      {"measurement": "E. coli (MIC)", "setting": "[8]", "result": 25, "unit": "µM"},
      {"measurement": "killing in preformed biofilms (XTT)", "setting": "[9]", "result": 20, "unit": "%"},
      {"measurement": "growth inhibition of S. aureus USA300", "setting": "[10]", "result": "also potent"},
      {"measurement": "HL50", "setting": "[11]", "result": ">200", "unit": "µM"}
    ]}
  ]
}
